Assay results published in publication PMC10600239, “Selective MCL-1 inhibitor ABBV-467 is efficacious in tumor models but is associated with cardiac troponin increases in patients” (Communications Medicine, 2023).
Where two headings read alike, the source gives them in different places.

Assay: Phase 1 first-in-human study (NCT04178902): pharmacokinetics
Format: in vivo
Conditions: for AUC(0-inf) / AUC(0-t) / clearance / Cmax / Tmax / half-life: plasma; for Cmax: read-out: Cmax; for Tmax: read-out: Tmax (converted)
From the text: Other eligibility criteria included: Eastern Cooperative Oncology Group performance status ≤2, measurable disease as defined by International Myeloma Working Group (IMWG) consensus criteria, an echocardiogram with an ejection fraction ≥50%, and adequate hematologic, hepatic, and renal function. […] Safety evaluations included, but were not limited to, adverse event (AE) monitoring, physical examinations, vital sign measurements, electrocardiogram (ECG), cardiac enzyme monitoring, and clinical laboratory testing (hematology and chemistry) as a measure of safety and tolerability for the entire study duration. Parameters used to determine PK included maximum observed plasma concentration (Cmax), terminal elimination half-life (t1/2), area under the plasma concentration-time curve (AUC) from time 0 to time of last measurable concentration (AUCt), AUC from time 0 to infinity (AUC0-∞), and clearance using non-compartmental methods. […] Preliminary efficacy endpoints were overall response rate (ORR), clinical benefit rate (CBR), and duration of response (DOR) as evaluated per adapted IMWG[36] criteria for MM and per adapted International Working Group (IWG)[37] and European Leukemia Net (ELN)[38] criteria for AML. […]

[1] = human, intravenous, 0.32 mg/kg, Cycle 1 day 1, dose level 0.32 mg/kg (only half of this dose given), N=2, individual values
[2] = human, intravenous, 0.53 mg/kg, Cycle 1 day 1, dose level 0.53 mg/kg (only half of this dose given), N=3
[3] = human, intravenous, 0.53 mg/kg, Cycle 1 day 15, 0.53 mg/kg, N=2, individual values

SMILES: Cc1c(Cl)c2c(Cl)c(C)c1-c1c(-c3ccc(F)cc3)sc3ncnc(c13)O[C@@H](C(=O)O)Cc1cc(ccc1OCc1ccnc(-c3ccc(OC[C@H]4COCCO4)cc3)n1)OC[C@@H](CN1CCN(C)CC1)O2 [ABBV-467]
- concentration at […] (human, in vivo, 0.08 mg/kg, Cycle 1 Day 1, DOSE_MGKG 0.08, cohort 1, PKTIME 24.5, read-out: CONC_NGML): 0 ng/mL
- concentration at 0 h (human, in vivo, 0.265 mg/kg, Cycle 1 Day 1, DOSE_MGKG 0.265, cohort 3, PKTIME 0, read-out: CONC_NGML): 0 ng/mL
- concentration at 20 min (human, in vivo, 0.265 mg/kg, Cycle 1 Day 1, DOSE_MGKG 0.265, cohort 3, PKTIME 0.333333, read-out: CONC_NGML): 904 ng/mL
- concentration at 0.5 h (human, in vivo, 0.265 mg/kg, Cycle 1 Day 1, DOSE_MGKG 0.265, cohort 3, PKTIME 0.5, read-out: CONC_NGML): 564 ng/mL
- concentration at 1.5 h (human, in vivo, 0.265 mg/kg, Cycle 1 Day 1, DOSE_MGKG 0.265, cohort 3, PKTIME 1.5, read-out: CONC_NGML): 14.9 ng/mL
- concentration at […] (human, in vivo, 0.265 mg/kg, Cycle 1 Day 1, DOSE_MGKG 0.265, cohort 3, PKTIME 2.5, read-out: CONC_NGML): 8.88 ng/mL
- concentration at […] (human, in vivo, 0.265 mg/kg, Cycle 1 Day 1, DOSE_MGKG 0.265, cohort 3, PKTIME 8.5, read-out: CONC_NGML): 0 ng/mL
- concentration at […] (human, in vivo, 0.265 mg/kg, Cycle 1 Day 1, DOSE_MGKG 0.265, cohort 3, PKTIME 24.5, read-out: CONC_NGML): 0 ng/mL
- concentration at 0 h (human, in vivo, 0.32 mg/kg, Cycle 1 Day 15, DOSE_MGKG 0.32, cohort 2, PKTIME 0, read-out: CONC_NGML): 0 ng/mL
- concentration at 20 min (human, in vivo, 0.32 mg/kg, Cycle 1 Day 15, DOSE_MGKG 0.32, cohort 2, PKTIME 0.333333, read-out: CONC_NGML): 646 ng/mL
- concentration at […] (human, in vivo, 0.32 mg/kg, Cycle 1 Day 15, DOSE_MGKG 0.32, cohort 2, PKTIME 8.5, read-out: CONC_NGML): 0 ng/mL
- concentration at […] (human, in vivo, 0.32 mg/kg, Cycle 1 Day 15, DOSE_MGKG 0.32, cohort 2, PKTIME 24.5, read-out: CONC_NGML): 0 ng/mL
- concentration at 10 min (human, in vivo, 0.53 mg/kg, Cycle 1 Day 15, DOSE_MGKG 0.53, cohort 3, PKTIME 0.166667, read-out: CONC_NGML): 731 ng/mL
- concentration at 20 min (human, in vivo, 0.53 mg/kg, Cycle 1 Day 15, DOSE_MGKG 0.53, cohort 3, PKTIME 0.333333, read-out: CONC_NGML): 1370 ng/mL
- concentration at 0.5 h (human, in vivo, 0.53 mg/kg, Cycle 1 Day 15, DOSE_MGKG 0.53, cohort 3, PKTIME 0.5, read-out: CONC_NGML): 1860 ng/mL
- concentration at 1.5 h (human, in vivo, 0.53 mg/kg, Cycle 1 Day 15, DOSE_MGKG 0.53, cohort 3, PKTIME 1.5, read-out: CONC_NGML): 87.9 ng/mL
- concentration at […] (human, in vivo, 0.53 mg/kg, Cycle 1 Day 15, DOSE_MGKG 0.53, cohort 3, PKTIME 2.5, read-out: CONC_NGML): 27.3 ng/mL
- concentration at 4.5 h (human, in vivo, 0.53 mg/kg, Cycle 1 Day 15, DOSE_MGKG 0.53, cohort 3, PKTIME 4.5, read-out: CONC_NGML): 11.3 ng/mL
- concentration at […] (human, in vivo, 0.53 mg/kg, Cycle 1 Day 15, DOSE_MGKG 0.53, cohort 3, PKTIME 8.5, read-out: CONC_NGML): 0 ng/mL
- concentration at […] (human, in vivo, 0.53 mg/kg, Cycle 1 Day 15, DOSE_MGKG 0.53, cohort 3, PKTIME 24.5, read-out: CONC_NGML): 0 ng/mL
- AUC(0-inf) [1]: 167 ng·h/mL
- AUC(0-t) [1]: 159 ng·h/mL
- clearance [1]: 15.9 mL/min/kg
- Cmax [1]: 474 ng/mL
- Tmax [1]: 20 min
- half-life (human, intravenous, 0.32 mg/kg, Cycle 1 day 1, dose level 0.32 mg/kg (only half of this dose given), N=2, individual values, read-out: t1/2): 50.8 min
- AUC(0-inf) [2]: 435 ng·h/mL
- AUC(0-t) [2]: 428 ng·h/mL
- clearance [2]: 10.2 mL/min/kg
- half-life (human, intravenous, 0.53 mg/kg, Cycle 1 day 1, dose level 0.53 mg/kg (only half of this dose given), N=3, harmonic mean (pseudo SD), read-out: t1/2): 55.5 min
- Tmax (human, intravenous, 0.53 mg/kg, Cycle 1 day 1, dose level 0.53 mg/kg (only half of this dose given), N=3, median): 30 min
- AUC(0-inf) [3]: 933 ng·h/mL
- AUC(0-t) [3]: 921 ng·h/mL
- clearance [3]: 9.47 mL/min/kg
- Cmax [3]: 1510 ng/mL
- Tmax [3]: 30 min
- half-life (human, intravenous, 0.53 mg/kg, Cycle 1 day 15, 0.53 mg/kg, N=2, individual values, read-out: t1/2): 63.3 min
- half-life (human, intravenous, […], Cycle 1 day 1, dose level […] (only half of this dose given), N=3, harmonic mean (pseudo SD), read-out: t1/2): 16.1 min
- Tmax (human, intravenous, […], Cycle 1 day 1, dose level […] (only half of this dose given), N=3, median): 30 min
- clearance (human, intravenous, […], Cycle 1 day 15, […], N=3): 10.4 mL/min/kg
- Tmax (human, intravenous, […], Cycle 1 day 15, […], N=3, median): 30 min
- half-life (human, iv, patients, 30-minute IV infusion, 0.08–0.53 mg/kg, read-out: average half-life): < 60 min
- time after completion of infusion at which circulating plasma concentrations were eliminated (patients, 30-minute IV infusion): 4 h
